Active and inactive are the calls of the source. No cut-off for these calls is given here.
Experiments:
MX1 [1] = assay: Antiproliferative activity against human MX1 cells assessed as of viable cell signal at minimum maximum cell growth incubated for 72 hrs by celltiter-glo assay relative to control; format: functional
PANC-08-13 = assay: Antiproliferative activity against human PANC-08-13 cells assessed as growth inhibition incubated for 72 hrs by celltiter-glo assay; format: functional
COLO 205 [2] = assay: Antitumor activity against human COLO 205 cells xenografted in Nude mouse assessed as increase in pHH3 level at 50 mg/kg, ip measured at 24 hrs by immunohistochemistry analysis; format: functional, organism-based
MX1 [3] = assay: Antiproliferative activity against human MX1 cells assessed as growth inhibition incubated for 72 hrs by celltiter-glo assay; format: functional
NCI-H522 = assay: Antiproliferative activity against human NCI-H522 cells assessed as of viable cell signal at minimum maximum cell growth incubated for 72 hrs by celltiter-glo assay relative to control; format: functional
Calu-1 = assay: Antiproliferative activity against human Calu-1 cells assessed as of viable cell signal at minimum maximum cell growth incubated for 72 hrs by celltiter-glo assay relative to control; format: functional
PC-3 = assay: Antiproliferative activity against human PC-3 cells assessed as of viable cell signal at minimum maximum cell growth incubated for 72 hrs by celltiter-glo assay relative to control; format: functional
Panc 02.03 [4] = assay: Antiproliferative activity against human Panc 02.03 cells assessed as viable cell signal at maximum growth inhibition incubated for 72 hrs by celltiter-glo assay relative to control; format: functional
Panc 02.03 [5] = assay: Antiproliferative activity against human Panc 02.03 cells assessed as growth inhibition incubated for 72 hrs by celltiter-glo assay; format: functional
HCT-116 = assay: Antiproliferative activity against human HCT-116 cells assessed as growth inhibition incubated for 72 hrs by celltiter-glo assay; format: functional
SJSA-1 = assay: Antiproliferative activity against human SJSA-1 cells assessed as growth inhibition incubated for 72 hrs by celltiter-glo assay; format: functional
U2OS = assay: Antiproliferative activity against human U2OS cells assessed as growth inhibition incubated for 72 hrs by celltiter-glo assay; format: functional
MDA-MB-453 = assay: Antiproliferative activity against human MDA-MB-453 cells assessed as of viable cell signal at minimum maximum cell growth incubated for 72 hrs by celltiter-glo assay relative to control; format: functional
NCI-H727 = assay: Antiproliferative activity against human NCI-H727 cells assessed as of viable cell signal at minimum maximum cell growth incubated for 72 hrs by celltiter-glo assay relative to control; format: functional
MDA-MB-231 = assay: Antiproliferative activity against human MDA-MB-231 cells assessed as viable cell signal at maximum growth inhibition incubated for 72 hrs by celltiter-glo assay relative to control; format: functional
HCC1937 [6] = assay: Antiproliferative activity against human HCC1937 cells assessed as viable cell signal at maximum growth inhibition incubated for 72 hrs by celltiter-glo assay relative to control; format: functional
[7] = molecular target: NUAK family SNF1-like kinase 1 (Homo sapiens) (UniProt O60285); assay: Inhibition of full length N-terminal his6-tagged recombinant human ARK5 (2 to end residues) expressed in baculovirus Sf21 cells at 10 uM relative to control
Chain of NUAK family SNF1-like kinase 1 (Homo sapiens) (O60285 whole entry): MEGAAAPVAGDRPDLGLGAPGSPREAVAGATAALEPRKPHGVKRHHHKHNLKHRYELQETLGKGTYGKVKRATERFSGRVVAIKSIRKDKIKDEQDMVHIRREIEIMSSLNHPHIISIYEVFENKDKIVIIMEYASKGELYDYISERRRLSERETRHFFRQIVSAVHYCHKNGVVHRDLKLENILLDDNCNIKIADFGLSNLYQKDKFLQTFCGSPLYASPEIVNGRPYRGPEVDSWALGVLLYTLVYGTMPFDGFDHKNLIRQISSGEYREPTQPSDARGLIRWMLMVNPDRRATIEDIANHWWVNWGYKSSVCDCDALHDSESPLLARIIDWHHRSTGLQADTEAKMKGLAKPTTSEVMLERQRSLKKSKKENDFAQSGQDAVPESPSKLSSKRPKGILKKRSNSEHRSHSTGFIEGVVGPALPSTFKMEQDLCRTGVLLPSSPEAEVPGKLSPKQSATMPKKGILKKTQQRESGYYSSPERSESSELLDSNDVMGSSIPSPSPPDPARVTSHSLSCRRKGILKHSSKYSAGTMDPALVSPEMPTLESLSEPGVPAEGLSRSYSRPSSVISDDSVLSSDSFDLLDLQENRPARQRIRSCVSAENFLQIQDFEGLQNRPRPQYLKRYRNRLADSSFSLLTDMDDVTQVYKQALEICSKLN

SK-MEL-5 [8] = assay: Antiproliferative activity against human SK-MEL-5 cells assessed as viable cell signal at maximum growth inhibition incubated for 72 hrs by celltiter-glo assay relative to control; format: functional
SK-MEL-5 [9] = assay: Antiproliferative activity against human SK-MEL-5 cells assessed as of viable cell signal at minimum maximum cell growth incubated for 72 hrs by celltiter-glo assay relative to control; format: functional
SW-620 = assay: Antiproliferative activity against human SW620 cells assessed as growth inhibition incubated for 72 hrs by celltiter-glo assay; format: functional
OVCAR-8 = assay: Antiproliferative activity against human OVCAR-8 cells assessed as growth inhibition incubated for 72 hrs by celltiter-glo assay; format: functional
[10] = system: Fibroblast growth factor receptor 1 (Homo sapiens), P11362 [V561M]; assay: Inhibition of N-terminal his6-tagged recombinant human FGFR1 V561M mutant (456 to 765 residues) at 10 uM relative to control
Chain of Fibroblast growth factor receptor 1 (Homo sapiens), P11362 [V561M] (P11362 whole entry V561M, the tested form may be a part): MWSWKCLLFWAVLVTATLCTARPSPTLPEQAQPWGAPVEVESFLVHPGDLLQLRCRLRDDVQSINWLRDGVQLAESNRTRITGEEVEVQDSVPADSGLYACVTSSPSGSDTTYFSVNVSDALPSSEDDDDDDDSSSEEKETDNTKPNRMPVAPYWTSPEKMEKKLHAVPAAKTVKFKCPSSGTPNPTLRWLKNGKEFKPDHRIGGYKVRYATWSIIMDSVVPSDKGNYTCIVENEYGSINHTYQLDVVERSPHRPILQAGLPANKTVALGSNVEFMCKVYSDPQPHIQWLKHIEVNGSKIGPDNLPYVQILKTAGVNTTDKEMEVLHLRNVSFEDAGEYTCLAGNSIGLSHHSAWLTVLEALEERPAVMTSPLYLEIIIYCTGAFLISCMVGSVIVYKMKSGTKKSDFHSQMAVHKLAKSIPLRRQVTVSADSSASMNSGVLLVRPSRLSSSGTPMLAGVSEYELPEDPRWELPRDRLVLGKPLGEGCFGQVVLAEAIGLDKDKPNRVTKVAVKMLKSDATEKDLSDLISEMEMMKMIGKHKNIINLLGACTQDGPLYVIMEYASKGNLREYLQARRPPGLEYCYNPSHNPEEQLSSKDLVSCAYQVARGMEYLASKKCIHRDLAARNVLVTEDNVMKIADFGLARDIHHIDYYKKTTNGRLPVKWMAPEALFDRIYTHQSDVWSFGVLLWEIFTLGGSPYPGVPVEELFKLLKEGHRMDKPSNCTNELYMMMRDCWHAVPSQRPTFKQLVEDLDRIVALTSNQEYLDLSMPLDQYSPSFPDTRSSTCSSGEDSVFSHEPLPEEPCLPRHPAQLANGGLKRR

NCI-H322M = assay: Antiproliferative activity against human NCI-H322M cells assessed as of viable cell signal at minimum maximum cell growth incubated for 72 hrs by celltiter-glo assay relative to control; format: functional
T47D = assay: Antiproliferative activity against human T47D cells assessed as viable cell signal at maximum growth inhibition incubated for 72 hrs by celltiter-glo assay relative to control; format: functional
PANC-1 = assay: Antiproliferative activity against human PANC-1 cells assessed as growth inhibition incubated for 72 hrs by celltiter-glo assay; format: functional
SK-MEL-28 = assay: Antiproliferative activity against human SK-MEL-28 cells assessed as growth inhibition incubated for 72 hrs by celltiter-glo assay; format: functional
SW480 = assay: Antiproliferative activity against human SW480 cells assessed as of viable cell signal at minimum maximum cell growth incubated for 72 hrs by celltiter-glo assay relative to control; format: functional
Jurkat = assay: Antiproliferative activity against human Jurkat cells assessed as of viable cell signal at minimum maximum cell growth incubated for 72 hrs by celltiter-glo assay relative to control; format: functional
OVCAR-4 = assay: Antiproliferative activity against human OVCAR-4 cells assessed as of viable cell signal at minimum maximum cell growth incubated for 72 hrs by celltiter-glo assay relative to control; format: functional
SK-BR-3 = assay: Antiproliferative activity against human SK-BR-3 cells assessed as viable cell signal at maximum growth inhibition incubated for 72 hrs by celltiter-glo assay relative to control; format: functional
A549 = assay: Induction of mitotic arrest in human A549 cells assessed as micronucleation at 20 nmol/L incubated for 16 hrs by DAPI staining based confocal microscopic analysis; format: functional, cell-based
SK-MEL-2 = assay: Antiproliferative activity against human SK-MEL-2 cells assessed as viable cell signal at maximum growth inhibition incubated for 72 hrs by celltiter-glo assay relative to control; format: functional
T-24 = assay: Antiproliferative activity against human T24 cells assessed as of viable cell signal at minimum maximum cell growth incubated for 72 hrs by celltiter-glo assay relative to control; format: functional
MIA PaCa-2 = assay: Antiproliferative activity against human MIA PaCa-2 cells assessed as viable cell signal at maximum growth inhibition incubated for 72 hrs by celltiter-glo assay relative to control; format: functional
COLO 205 [11] = assay: Antitumor activity against human COLO 205 cells xenografted in Nude mouse assessed as disorganized condense chromatin at 50 to 100 mg/kg, ip measured at 24 to 48 hrs by H and E staining based analysis; format: functional, organism-based; details: dose 50-100 mg/kg, time 24-48 hrs
LoVo = assay: Antiproliferative activity against human LoVo cells assessed as viable cell signal at maximum growth inhibition incubated for 72 hrs by celltiter-glo assay relative to control; format: functional
MCF7 = assay: Antiproliferative activity against human MCF7 cells assessed as viable cell signal at maximum growth inhibition incubated for 72 hrs by celltiter-glo assay relative to control; format: functional
THP-1 = assay: Antiproliferative activity against human THP-1 cells assessed as growth inhibition incubated for 72 hrs by celltiter-glo assay; format: functional
Raji = assay: Antiproliferative activity against human Raji cells assessed as viable cell signal at maximum growth inhibition incubated for 72 hrs by celltiter-glo assay relative to control; format: functional
HCC1937 [12] = assay: Antiproliferative activity against human HCC1937 cells assessed as of viable cell signal at minimum maximum cell growth incubated for 72 hrs by celltiter-glo assay relative to control; format: functional

C[C@@H](Oc1cc(-n2cnc3ccc(CN4CCN(C)CC4)cc32)sc1C(N)=O)c1ccccc1C(F)(F)F [GSK-461364]
Emin (MX1 [1]): 161.5%
GI50 (PANC-08-13): 18.9 nM
Activity (COLO 205 [2]): Active
GI50 (MX1 [3]): 12.1 nM
Emin (NCI-H522): 125%
Emin (Calu-1): 179.8%
Emin (PC-3): 385.1%
Emax (Panc 02.03 [4]): 420%
GI50 (Panc 02.03 [5]): 20.9 nM
GI50 (HCT-116): 50.5 nM
GI50 (SJSA-1): 24.4 nM
GI50 (U2OS): 41.7 nM
Emin (MDA-MB-453): 179.6%
Emin (NCI-H727): 158.9%
Emax (MDA-MB-231): 520%
Emax (HCC1937 [6]): 240%
inhibition [7]: 79%
Emax (SK-MEL-5 [8]): 258%
Emin (SK-MEL-5 [9]): 84%
GI50 (SW-620): 6.6 nM
GI50 (OVCAR-8): 20.4 nM
inhibition [10]: 62%
Emin (NCI-H322M): 260.3%
Emax (T47D): 320%
GI50 (PANC-1): 44.9 nM
GI50 (SK-MEL-28): 381 nM
Emin (SW480): 114.7%
Emin (Jurkat): 2.2%
Emin (OVCAR-4): 164.7%
Emax (SK-BR-3): 300%
Activity (A549): Active
Emax (SK-MEL-2): 422%
Emin (T-24): 109%
Emax (MIA PaCa-2): 580%
Activity (COLO 205 [11]): Active
Emax (LoVo): 400%
Emax (MCF7): 429%
GI50 (THP-1): 11.8 nM
Emax (Raji): 434%
Emin (HCC1937 [12]): 100%
